Legend:
[1] = Lipophilicity of the compound assessed as retardation factor using hexane-ethyl acetate solvent system (5:2) on silica gel TLC plate system; format: physicochemical; conditions: hexane-ethyl acetate (5:2)
Spodoptera litura = assay: Antifeedant activity against Spodoptera litura third-instar larvae fed on compound treated fresh sweet potato leaves by dual choice leaf disk assay; format: functional
Daphnia magna = assay: Toxicity against Daphnia magna after 12 hr post compound treatment; format: organism-based; conditions: in vivo

| Rf [1] | SMILES | ED50 (Spodoptera litura) | pED50 (Spodoptera litura) | LD50 (Daphnia magna) [ppm] |
| --- | --- | --- | --- | --- |
| 0.52 | C=C(C)C1Cc2c(cc(OC)c(C(C)=O)c2OC)O1 (centres undefined) | 2.8 ×10⁻⁸ mol/cm2 | 7.55 | – |
| 0.62 | C=C(C)C1Cc2cc(C(C)=O)c(OC)cc2O1 (centres undefined) | 4.2 ×10⁻⁸ mol/cm2 | 7.38 | – |
| 0.52 | C=C(C)C1Cc2c(OC)c(OC)c(OC)c(C(C)=O)c2O1 (centres undefined) | 1.6 ×10⁻⁸ mol/cm2 | 7.8 | – |
| 0.58 | COc1cc2c(c(OC)c1C(C)=O)CC(C(C)C)O2 (centres undefined) | 7.6 ×10⁻⁸ mol/cm2 | 7.12 | – |
| 0.83 | C=C(C)C1Cc2c(cc(OC)c(C(C)O)c2OC)O1 (centres undefined) | 1.1 ×10⁻⁷ mol/cm2 | 6.96 | – |
| 0.92 | C=C(C)C1Cc2ccccc2O1 (centres undefined) | 1.1 umol/cm2 | 5.96 | – |
| 0.82 | C=C(C)C1Cc2c(OC)cc(OC)cc2O1 (centres undefined) | 5.3 ×10⁻⁸ mol/cm2 | 7.28 | – |
| 0.86 | C=C(C)C1Cc2ccc(OC)cc2O1 (centres undefined) | 6.3 ×10⁻⁷ mol/cm2 | 6.2 | – |
| 0.84 | C=C(C)C1Cc2cc(OC)ccc2O1 (centres undefined) | 1.3 ×10⁻⁷ mol/cm2 | 6.89 | – |
| 0.68 | C=C(C)C1Cc2c(cc(OC)c(OC)c2OC)O1 (centres undefined) | 5.6 ×10⁻⁸ mol/cm2 | 7.25 | – |
| 0.61 | C=C(C)C1Cc2cc(C(C)=O)ccc2O1 (racemic) | 7.4 ×10⁻⁸ mol/cm2 | 7.13 | – |
| 0.51 | C=C(C)C1Cc2c(cc(OC)c(C(C)=O)c2O)O1 (racemic) | 7.1 ×10⁻⁸ mol/cm2 | 7.15 | – |
| 0.66 | C=C(C)c1cc2cc(C(C)=O)c(OC)cc2o1 [MethylEuparin] | 6.1 ×10⁻⁸ mol/cm2 | 7.21 | – |
| 0.51 | C=C(C)[C@@H]1Cc2c(cc(OC)c(C(C)=O)c2O)O1 [REMIROL] | 1.3 ×10⁻⁷ mol/cm2 | 6.89 | – |

| SMILES | Rf [1] | ED50 (Spodoptera litura) | pED50 (Spodoptera litura) | LD50 (Daphnia magna) [ppm] |
| --- | --- | --- | --- | --- |
| C=C(C)C1Cc2c(OC)cc(OC)c(C(C)=O)c2O1 (centres undefined) | 0.24 | 5.4 ×10⁻⁹ mol/cm2 | 8.27 | 9.1 |
| C=C(C)c1cc2cc(C(C)=O)c(O)cc2o1 [EUPARIN] | 0.76 | 1.2 ×10⁻⁹ mol/cm2 | 5.92 | – |
